{
  "source": "patent US20210267977A1",
  "about": "“C[…] AFTER 5HT2A AGONISTS ADMINISTRATION” (Universitätsspital Basel, priority 2020, published 2021)",
  "key": {"healthy subjects [1]": {"system": "healthy subjects", "assay": "Example 3 clinical study: subjective drug effects (VAS, 5D-ASC), ketanserin or placebo 1 hour after LSD", "conditions": "for duration of action of LSD: three subjects", "experimental": "(§1) Study design: The study used a double-blind, placebo-controlled, random-order 2-period cross-over design with 2 treatment conditions: 1) 100 μg LSD+ketanserin (40 mg) and 2) 100 μg LSD+placebo. Ketanserin or placebo was administered 1 hour after LSD. The washout periods between sessions were at least 10 days. The study was registered at ClinicalTrials.gov (NCT04558294).\n(§2) Participants: Healthy subjects (men and women) were recruited. Participants who were younger than 25 years old were excluded from participating in the study. Additional exclusion criteria were age >65 years, pregnancy (urine pregnancy test at screening and before each test session), personal or family (first-degree relative) history of major psychiatric disorders (assessed by the Semi-structured Clinical Interview for Diagnostic and Statistical Manual of Mental Disorders, 4th edition, Axis I disorders by a trained psychiatrist), the use of medications that may interfere with the study medications (e.g. antidepressants, antipsychotics, sedatives), chronic or acute physical illness (abnormal physical exam, electrocardiogram, or hematological and chemical blood analyses), tobacco smoking (>10 cigarettes/day), lifetime prevalence of illicit drug use >10 times (except for Δ^9-tetrahydrocannabinol), illicit drug use within the last 2 months, and illicit drug use during the study (determined by urine drug tests).\n(§3) Study drugs: LSD (D-lysergic acid diethylamide base, high-performance liquid chromatography purity >99%; Lipomed AG, Arlesheim, Switzerland) was administered as an oral solution in units containing 100 μg LSD in 1 mL of 96% ethanol (Holze et al., 2019). Ketanserin was obtained as the marketed drug (KETENSIN® (Janssen)) and encapsulated with opaque capsules to ensure blinding. Ketanserin placebo consisted of identical opaque capsules filled with mannitol.\n(§4) Study procedures: The study included a screening visit, two 13 hour test sessions (7:00 AM-8:00 PM), and an end-of-study visit. LSD was administered at 8:00 AM. Ketanserin (40 mg) or placebo was administered at 9:00 AM. The outcome measures were repeatedly assessed for 12 hours after LSD administration.\nSubjective drug effects: Subjective effects were assessed repeatedly using visual analog scales (VASs) 0, 0.5, 1, 1.5, 2, 2.5, 3, 3.5, 4, 5, 6, 7, 8, 9, 10, 11, and 12 hours after LSD administration. The VASs were presented as 100-mm horizontal lines (0-100%), marked from “not at all” on the left to “extremely” on the right. The 5D-ASC scale (Dittrich, 1998; Studerus et al., 2010) was administered 12 hours after LSD administration to retrospectively rate alterations in waking consciousness induced by the drugs. Autonomic, adverse, and endocrine effects: Blood pressure, heart rate, and tympanic body temperature were repeatedly measured 1 hour before and 0, 0.5, 1, 1.5, 2.5, 3, 3.5, 4, 5, 6, 7, 8, 9, 10, 11, and 12 hours after LSD administration as previously described in detail (Hysek et al., 2010). Adverse effects were systematically assessed up to 12 hours after drug administration using the 66-item List of Complaints (Zerssen, 1976)."}, "healthy subjects [2]": {"system": "healthy subjects", "assay": "Example 3 clinical study: cardiovascular and adverse effects (List of Complaints)", "conditions": "for total of reported complaints on the LC list (mean±SEM): up to 12 hours after LSD", "experimental": "as §1, §2, §3, §4\nSubjective drug effects: Subjective effects were assessed repeatedly using visual analog scales (VASs) 0, 0.5, 1, 1.5, 2, 2.5, 3, 3.5, 4, 5, 6, 7, 8, 9, 10, 11, and 12 hours after LSD administration. […] Autonomic, adverse, and endocrine effects: Blood pressure, heart rate, and tympanic body temperature were repeatedly measured 1 hour before and 0, 0.5, 1, 1.5, 2.5, 3, 3.5, 4, 5, 6, 7, 8, 9, 10, 11, and 12 hours after LSD administration as previously described in detail (Hysek et al., 2010). Adverse effects were systematically assessed up to 12 hours after drug administration using the 66-item List of Complaints (Zerssen, 1976)."}, "humans": {"system": "humans", "conditions": "cited from earlier work"}, "[3]": {"assay": "Example 2 clinical study: plasma LSD pharmacokinetics", "conditions": "ketanserin 40 mg before 200 μg LSD, one-compartment model", "experimental": "The blood samples were immediately centrifuged, and the plasma was subsequently stored at −80° C. until analysis."}, "healthy subjects [4]": {"system": "healthy subjects", "assay": "Example 2 clinical study: subjective drug effects (VAS, AMRS, 5D-ASC, MEQ), ketanserin before LSD", "type": "in vivo, human", "conditions": "16 subjects", "experimental": "The study was registered at ClinicalTrials.gov (NCT03321136).\n100 μg LSD/100 μg LSD). […] Placebo consisted of identical opaque capsules filled with mannitol.\nLSD or placebo was administered at 9:00 AM. The outcome measures were repeatedly assessed for 24 hours.\nThe VASs for “concentration”, and “perception of time” were bidirectional (±50%). Marked from “not at all” on the left (−50), to “normal” in the middle (0), to “extremely” on the right (+50) for concentration and “slowed” (−50) and “racing” (+50) for “perception of time”. […] Mystical experiences were assessed using the German version (Liechti et al., 2017) of the 100-item States of Consciousness Questionnaire (SOCQ) (Griffiths et al., 2006) that includes the 43-item and newer 30-item MEQ (MEQ43 (Griffiths et al., 2006) and MEQ30 (Barrett et al., 2015)). The 60-item Adjective Mood Rating Scale (AMRS) (Janke & Debus, 1978) was administered 1 hour before and 3, 6, 9, 12, and 24 hours after drug administration.\nThe criterion for significance was p<0.05."}, "5HT2A receptor": {"biological_target": "T1, 5HT2A receptor (Homo sapiens, UniProt P28223)", "T1 construct": "ketanserin (40 mg orally) 1 hour prior to the oral administration of LSD; host or cells: human subjects (in vivo, endogenous receptor)", "T1 sequence (P28223 whole entry)": "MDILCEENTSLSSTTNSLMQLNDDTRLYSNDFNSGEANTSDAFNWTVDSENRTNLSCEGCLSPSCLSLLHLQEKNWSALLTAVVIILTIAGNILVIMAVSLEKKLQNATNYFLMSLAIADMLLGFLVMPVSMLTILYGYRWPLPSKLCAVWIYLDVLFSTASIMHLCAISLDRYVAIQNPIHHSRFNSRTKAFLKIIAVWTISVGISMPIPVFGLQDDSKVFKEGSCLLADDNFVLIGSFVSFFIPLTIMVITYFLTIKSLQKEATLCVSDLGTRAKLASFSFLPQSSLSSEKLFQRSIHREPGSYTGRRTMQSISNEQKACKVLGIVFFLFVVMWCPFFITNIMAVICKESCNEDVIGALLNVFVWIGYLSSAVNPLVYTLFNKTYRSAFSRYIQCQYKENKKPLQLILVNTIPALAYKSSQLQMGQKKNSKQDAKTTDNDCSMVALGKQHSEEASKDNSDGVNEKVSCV", "conditions": "cited from earlier work"}, "healthy subjects [5]": {"system": "healthy subjects", "assay": "Example 2 clinical study: autonomic and adverse effects (blood pressure, heart rate, body temperature, List of Complaints)", "conditions": "ketanserin 40 mg before 200 μg LSD", "from_the_text": "The washout periods between sessions were at least 10 days. The study was registered at ClinicalTrials.gov (NCT03321136).\nas §2, with “Participants” for “Participants: Healthy subjects (men and women) were recruited. Participants”, “tests). […]” for “tests).”\nKetanserin (40 mg) or placebo was administered at 8:00 AM. […] The outcome measures were repeatedly assessed for 24 hours.\nAutonomic, adverse, and endocrine effects: Blood pressure, heart rate, and tympanic body temperature were repeatedly measured 1 hour before and 0, 0.5, 1, 1.5, 2.5, 3, 4, 5, 6, 7, 8, 9, 10, 11, 12, 14, 16, and 24 hours after drug administration as previously described in detail (Hysek et al., 2010). Adverse effects were systematically assessed 1 hour before and 12 and 24 hours after drug administration using the 66-item List of Complaints (Zerssen, 1976).\nData analysis: Peak (Emax and/or Emin) or peak change from baseline (ΔEmax) values were determined for repeated measures. The values were then analyzed using repeated-measures analysis of variance (ANOVA), with drug as within-subjects factor, followed by Tukey post hoc comparisons using Statistica 12 software (StatSoft, Tulsa, Okla., USA). […]"}, "[6]": {"conditions": "100 μg LSD + ketanserin 40 mg 1 hour after"}, "[7]": {"conditions": "ketanserin 40 mg 1 hour after 100 μg LSD"}, "[8]": {"conditions": "ketanserin 40 mg before 200 μg LSD, reduced to the level of 25 μg LSD"}},
  "note": "Read-outs that look alike come from different tables or passages of the source.",
  "data": [
    {"smiles": "CCN(CC)C(=O)[C@@H]1C=C2c3cccc4[nH]cc(c34)C[C@H]2N(C)C1", "note": "[LSD, Lysergic acid diethylamide]", "values": [
      {"measurement": "total 3D-OAV score", "setting": "healthy subjects [1]; 100 μg LSD + placebo", "value": 34, "unit": "%"},
      {"measurement": "duration of action of LSD", "setting": "healthy subjects [1]; 100 μg LSD + placebo 1 hour after", "value": 10, "unit": "h"},
      {"measurement": "total of reported complaints on the LC list (mean±SEM)", "setting": "healthy subjects [2]; 100 μg LSD + placebo", "value": "7±3.6"},
      {"measurement": "duration of subjective effects (mean±SD)", "setting": "humans; 100 μg LSD, Holze et al., 2019, range: 5.3-12.8 hour", "value": "8.5 ± 2.0", "unit": "h"},
      {"measurement": "duration of LSD effects", "setting": "humans; 100 μg dose, Dolder et al., 2017, range: 5-14 hours", "value": "8.2 ± 2.1", "unit": "h"},
      {"measurement": "duration of LSD effects", "setting": "humans; 200 μg dose, Dolder et al., 2017, range: 7-19.5 hours", "value": "11.6 ± 1.7", "unit": "h"}
    ]},
    {"smiles": "O=C(c1ccc(F)cc1)C1CCN(CCn2c(=O)[nH]c3ccccc3c2=O)CC1", "note": "[ketanserin]", "values": [
      {"measurement": "effect on the PK of 200 μg LSD", "setting": "[3]", "value": "only minimally altered"},
      {"measurement": "total 3D-OAV score", "setting": "healthy subjects [1]; [6]", "value": 24, "unit": "%"},
      {"measurement": "duration of action of LSD", "setting": "healthy subjects [1]; [6]", "value": 4, "unit": "h"},
      {"measurement": "set-in of the ketanserin effect on the subjective response to LSD, time after ketanserin administration", "setting": "healthy subjects [1]; [7]", "value": 1, "unit": "h"},
      {"measurement": "time to blockade of the LSD-typical effects", "setting": "healthy subjects [1]; [7]", "value": "within two hours"},
      {"measurement": "typical mind altering effects of LSD on VAS (any drug effect, good drug effect, visual, auditory, synaesthetic, sense of time, ego-dissolution)", "setting": "healthy subjects [1]; [7]", "value": "very effectively reduced"},
      {"measurement": "reduction of the duration of action of LSD", "setting": "healthy subjects [1]; ketanserin 40 mg 1 hour after 100 μg LSD vs placebo", "value": "approximately 60%"},
      {"measurement": "recurrence of the LSD effect", "setting": "healthy subjects [1]; ketanserin 40 mg 1 hour after 100 μg LSD, 12 hours observation", "value": "no recurrence of the LSD effect"},
      {"measurement": "nausea induced by LSD (VAS)", "setting": "healthy subjects [1]; ketanserin 40 mg 1 hour after 100 μg LSD, more data needed", "value": "tended to reduce nausea"},
      {"measurement": "acute subjective psychedelic response to LSD", "setting": "healthy subjects [1]; ketanserin 40 mg 1 hour after LSD base 100 μg", "value": "markedly shortened and also attenuated"},
      {"measurement": "feelings of tiredness (VAS)", "setting": "healthy subjects [1]; ketanserin 40 mg added to 100 μg LSD compared with placebo", "value": "increased feelings of tiredness"},
      {"measurement": "subjective feelings of stimulation (VAS)", "setting": "healthy subjects [1]; ketanserin 40 mg after 100 μg LSD compared with LSD alone", "value": "increased subjective feelings of stimulation"},
      {"measurement": "subjective effects of LSD on the 5D-ASC Scale", "setting": "healthy subjects [1]; ketanserin 40 mg after 100 μg LSD in comparison with placebo", "value": "reduced the subjective effects of LSD"},
      {"measurement": "reduction of the total 3D-OAV score", "setting": "healthy subjects [1]; ketanserin 40 mg after 100 μg LSD vs placebo", "value": "approximately 30%"},
      {"measurement": "LSD response on the AMRS", "setting": "healthy subjects [4]; ketanserin 40 mg 1 hour before 200 μg LSD", "value": "significantly prevented anxiety, introversion and emotional excitation"},
      {"measurement": "overall subjective response to high-dose LSD", "setting": "healthy subjects [4]; ketanserin 40 mg 1 hour before 200 μg LSD, most P<0.001", "value": "reduced the subjective response to high-dose LSD approximately to the level of the 25 μg LSD dose"},
      {"measurement": "subjective effects on the 5D-ASC Scale", "setting": "healthy subjects [4]; [8]", "value": "significantly and markedly reduced"},
      {"measurement": "subjective effects on the MEQ and subscales 'Nadir' and 'Aesthetic experience' (SOCQ)", "setting": "healthy subjects [4]; [8]", "value": "significantly and markedly reduced"},
      {"measurement": "effect on the LSD experience", "setting": "5HT2A receptor; ketanserin 40 mg orally 1 hour prior to LSD 200 μg, Liechti", "value": "similarly prevented the LSD experience"},
      {"measurement": "effect on the LSD experience", "setting": "5HT2A receptor; ketanserin 40 mg orally 1 hour prior to oral LSD 70-100 μg, Preller et al., 2017", "value": "prevent the LSD experience almost completely"},
      {"measurement": "acute adverse effects of 200 μg LSD (List of Complaints)", "setting": "healthy subjects [5]", "value": "significantly prevented"},
      {"measurement": "LSD response on blood pressure", "setting": "healthy subjects [5]; 16 subjects", "value": "transiently reduced the LSD response on blood pressure only up to 6 hours"},
      {"measurement": "LSD-induced heart rate response", "setting": "healthy subjects [5]; 16 subjects", "value": "significantly prevented"},
      {"measurement": "total of reported complaints on the LC list (mean±SEM)", "setting": "healthy subjects [2]; 100 μg LSD + ketanserin 40 mg", "value": "8.3±4"},
      {"measurement": "cardiovascular effects of LSD (blood pressure, heart rate, body temperature)", "setting": "healthy subjects [2]; ketanserin 40 mg 1 hour after 100 μg LSD compared with placebo", "value": "no relevant effects on the cardiovascular effects of LSD"},
      {"measurement": "diastolic blood pressure", "setting": "healthy subjects [2]; ketanserin 40 mg 1 hour after 100 μg LSD, needing further study", "value": "transient decrease in diastolic blood pressure"}
    ]}
  ]
}
